Publication PMC6982022 (International Journal of Molecular Sciences, 2019)
Where “and” joins values, the source holds several entries; their conditions need not be identical. Equal entries are not always repeated. Entries after “also recorded” stand apart in the source; their conditions may differ. Where two headings read alike, the source gives them in different places.

Columns and labels:
adult male CD rats = test: Parameters measured at necropsy at end of fertility trial (week 11); format: in vivo, rat
Text: (§1) Rats were weighed on day 0 (first day of dosing) and weekly thereafter. Dosages were adjusted based on the most recent body weight. Males were cohabited with untreated females (one male per two females) weekly at weeks 1 through 9 [38, 39]. Females were necropsied seven days after separation from males to determine the numbers of implantation sites. Individual male rats were bled from the tail vein at weeks 0, 1, 4, and 7 and serum was harvested by centrifugation. At week 11, the male rats were weighed, anesthetized, and exsanguinated. Sera were analyzed for inhibin B by ELISA (enzyme-linked immunosorbent assay), and rat follicle stimulating hormone (rFSH) and testosterone by radioimmunoassay. Testes, epididymides, ventral prostates, and seminal vesicles were excised and weighed. The left testis was homogenized, and spermatid head counts obtained.
Sperm were obtained from the left cauda epididymis and evaluated for sperm motility, as follows. The cauda epididymis was punctured with an 18-gauge needle and sperm expressed into the well of a culture slide. The sperm were diluted with capacitation buffer containing 0.1% BSA to obtain about 20–40 sperm per field as viewed in the inverted microscope. The number of motile and non-motile sperm was determined, and the percent of motile sperm were calculated. A smear of the diluted sperm was also prepared and used to assess sperm morphology under phase contrast. The percent of normal/abnormal sperm were calculated.
(§2) Statistical analysis using the Student’s t-test was performed on body weights, paired testes weights, ventral prostrate weights, seminal vesicle weights, paired epididymal weights, spermatid head counts, percent motile and normal epididymal sperm. We used analysis of variance (ANOVA) for serum inhibin B, rFSH, and testosterone, since these measurements were repeated throughout the study period. The effect of NB-DNJ at 15 mg/kg/day dose in the rat model was studied following the same protocol as that for NB-DGJ.

male CD rats [1] = test: Rat mating trial (fertility); format: in vivo; details: for Conceptus, mean abnormal / Fertile/Mated / Conceptus, mean normal: 150 mg/kg/day oral days 0-34
Procedure: Eighteen adult male CD rats were divided into three groups of six rats each. One group of six CD rats was treated with vehicle (distilled water containing 0.9% benzyl alcohol) via oral gavage (5 mL/kg/day), and the second group (6 rats) was treated with NB-DGJ (in distilled water containing 0.9% benzyl alcohol) via oral gavage at 150 mg/kg/day (in approximately 5 mL/kg of water) daily for 35 consecutive days. The third group (6 rats) was treated with 15 mg/kg NB-DNJ in distilled water containing 0.9% benzyl alcohol) via oral gavage (in approximately 5 mL/kg of water) daily for 35 consecutive days (Figure S5).
as §1, §2

male CD rats [2] = test: Serum hormone levels during mating trial; format: in vivo, rat; details: 150 mg/kg/day; weeks 0, 1, 4 and 7; ANOVA
Text: as §1, §2

CGT = details: cited from earlier work
C57BL6J mice = test: Testis histology (H&E) after 35 days oral dosing; format: in vivo, mouse; details: 15, 25 or 50 mg/kg, oral daily
Procedure: Groups of six mice, each, were used for three different doses of NB-DNJ or NB-DGJ formulated in milliQ water at 50 mg/kg, 25 mg/kg and 15 mg/kg, respectively. Control groups were given an equivalent volume of water. Animals were given compound or control once daily for 35 consecutive days via oral gavage using animal feeding needles (Biomedical Needles, Popper, NY, USA). Body weight was noted every week for all treatment groups. Mice were euthanized at the end of a 35 days dosing regimen using CO2 asphyxia followed by cervical dislocation. Testes were harvested, weighed and stored in Bouin’s fixative for 48 h, then sliced into two halves, and stored in fresh Bouin’s for another 24 h. The tissue slices were then rinsed in 70% ethanol and processed and stained for histology using a standard protocol for Hematoxylin and eosin staining. Spermatids with elongated and abnormally shaped heads were counted per 20 fields and average number calculated for 6 mice/group.

[3] = 150 mg/kg/day on days 0-34, week 11, n = 6

CCCCN1C[C@H](O)[C@@H](O)[C@@H](O)[C@H]1CO [NB-DGJ, N-butyldeoxygalactonojirimycin]
Final Body Weight Week 11 (g ± SE) (adult male CD rats; 150 mg/kg/day on days 0-34, n = 6): 572 ± 17 g
Ventral prostate weight versus vehicle (adult male CD rats; 150 mg/kg/day on days 0-34, week 11, Student's t-test): No significant difference
Mean Epididymal Sperm Motility (%) (adult male CD rats; [3]): 60% and 60 ± 3 %
Mean Epididymal Sperm with Normal Morphology (% ± SE) (adult male CD rats; [3]): 72 ± 1 %
Mean Paired Epididymal Weight (g ± SE) (adult male CD rats; [3]): 1.64 ± 0.03 g
Mean Paired Testis Weight (g ± SE) (adult male CD rats; [3]): 3.80 ± 0.11 g
Mean Seminal Vesicle Weight with Coagulating Gland (adult male CD rats; [3]): 1.40 ± 0.11 g
Mean Spermatid Head Count/Testis (adult male CD rats; [3]): 123.59 ± 3.73 Cells × 10^6
Treatment time after which fertility was blocked (male CD rats [1]; 150 mg/kg/day oral): 35 days
Conceptus, mean abnormal (male CD rats [1]; week of study 1): 0.3
Fertile/Mated (male CD rats [1]; week of study 1): 6/6
Conceptus, mean normal (male CD rats [1]; week of study 1, both females per male): 14
Conceptus, mean abnormal (male CD rats [1]; week of study 2): 0.1
Conceptus, mean normal (male CD rats [1]; week of study 2): 6
Fertile/Mated (male CD rats [1]; week of study 2): 6/6
Conceptus, mean abnormal (male CD rats [1]; week of study 3): 0
Conceptus, mean normal (male CD rats [1]; week of study 3): 1
Fertile/Mated (male CD rats [1]; week of study 3): 3/6
Conceptus, mean abnormal (male CD rats [1]; week of study 4): 0/0
Conceptus, mean normal (male CD rats [1]; week of study 4): 0/0
Fertile/Mated (male CD rats [1]; week of study 4): 0/6
Conceptus, mean abnormal (male CD rats [1]; week of study 5): 2
Fertile/Mated (male CD rats [1]; week of study 5): 6/6
Conceptus, mean normal (male CD rats [1]; week of study 5 (after termination of dosing)): 10
Conceptus, mean abnormal (male CD rats [1]; week of study 6): 0.3
Conceptus, mean normal (male CD rats [1]; week of study 6): 13
Fertile/Mated (male CD rats [1]; week of study 6): 6/6
Conceptus, mean abnormal (male CD rats [1]; week of study 7): 0.3
Conceptus, mean normal (male CD rats [1]; week of study 7): 13
Fertile/Mated (male CD rats [1]; week of study 7): 6/6
Conceptus, mean abnormal (male CD rats [1]; week of study 8): 0.3
Conceptus, mean normal (male CD rats [1]; week of study 8): 14
Fertile/Mated (male CD rats [1]; week of study 8): 6/6
Conceptus, mean abnormal (male CD rats [1]; week of study 9): 0.5
Conceptus, mean normal (male CD rats [1]; week of study 9): 13
Fertile/Mated (male CD rats [1]; week of study 9): 6/6
Return of fertility after termination of dosing (male CD rats [1]; 150 mg/kg/day oral for 35 days): within one week
Reduction of numbers of normal conceptuses (male CD rats [1]; 150 mg/kg/day oral, second week): 50%
Treated rats infertile (male CD rats [1]; 150 mg/kg/day oral, week four): 100%
Treated rats rendered infertile (male CD rats [1]; 150 mg/kg/day oral, week three): 50%
Effect on fertility (in words) (male CD rats [1]; 150 mg/kg/day, daily single oral dose, 35 days): induced reversible infertility; also recorded: caused reversible infertility
Adverse effects in treated animals (male CD rats [1]; daily dose of 150 mg/kg, 35 days): lack of adverse effects
Serum inhibin B versus control (male CD rats [2]): No significant differences
Serum rFSH versus control (male CD rats [2]): No significant differences
Serum testosterone versus control (male CD rats [2]): No significant differences
IC50 (CGT; ref 20): 41.4 µM
IC50 (CGT; ref 36): 10 µM
Testis histology, spermatid heads (in words) (C57BL6J mice): rounded, abnormally shaped spermatid heads
